doi:10.1101/2024.10.18.619128v2 (biorxiv, 2024)
Like-named read-outs stand apart in the source and are kept apart here.

Key:
BT20 = experiment: cells; details: Homo sapiens, BT-20, 48 h, read-out: III / CEY1410
BT474 = experiment: cells; details: Homo sapiens, BT-474, 48 h
DU4475 = experiment: cells; details: Homo sapiens, DU-4475, 48 h, read-out: III / CEY1410
HCC1143 = experiment: cells; details: Homo sapiens, HCC1143, 48 h, read-out: III / CEY1410
HCC1419 = experiment: cells; details: Homo sapiens, HCC1419, 48 h
HCC1569 = experiment: cells; details: Homo sapiens, HCC1569, 48 h
HCC1937 = experiment: cells; details: Homo sapiens, HCC1937, 48 h, read-out: III / CEY1410
HCC1954 = experiment: cells; details: Homo sapiens, HCC1954, 48 h
HCC70 = experiment: cells; details: Homo sapiens, HCC70, 48 h, read-out: III / CEY1410
HS578T = experiment: cells; details: Homo sapiens, Hs-578T, 48 h, read-out: III / CEY1410
MCF7 = experiment: cells; details: Homo sapiens, MCF7, 48 h
MDAMB231 = experiment: cells; details: Homo sapiens, MDA-MB-231, 48 h, read-out: III / CEY1410
MDAMB361 = experiment: cells; details: Homo sapiens, MDA-MB-361, 48 h, read-out: III / CEY1410
MDAMB436 = experiment: cells; details: Homo sapiens, MDA-MB-436, 48 h
MDAMB453 = experiment: cells; details: Homo sapiens, MDA-MB-453, 48 h, read-out: III / CEY1410
MDAMB468 = experiment: cells; details: Homo sapiens, MDA-MB-468, 48 h, read-out: III / CEY1410
SKBR3 = experiment: cells; details: Homo sapiens, SK-BR-3, 48 h, read-out: III / CEY1410
T47D = experiment: cells; details: Homo sapiens, T47D, 48 h, read-out: III / CEY1410
ALDH1A3 = ALDH1A3 (Homo sapiens, UniProt P47895); experiment: HPLC retinaldehyde dehydrogenase assay; type: biochemical
ALDH1A2 = ALDH1A2 (Homo sapiens, UniProt O94788); experiment: HPLC retinaldehyde dehydrogenase assay; type: biochemical
ALDH1A1 = ALDH1A1 (Homo sapiens, UniProt P00352); experiment: HPLC retinaldehyde dehydrogenase assay; type: biochemical
MAXFHER 1162 = experiment: cells; details: read-out: DIMATE
MAXFHER 2690 = experiment: cells; details: read-out: DIMATE
MAXFHER 4035 = experiment: cells; details: read-out: DIMATE
MAXFHER BR64 = experiment: cells; details: read-out: DIMATE
MAXFTN 1384 = experiment: cells; details: read-out: DIMATE
MAXFTN 2990 = experiment: cells; details: read-out: DIMATE
MAXFTN 401 = experiment: cells; details: read-out: DIMATE
MAXFTN 449 = experiment: cells; details: read-out: DIMATE
MAXFTN 508 = experiment: cells; details: read-out: DIMATE
MAXFTN BR120 = experiment: cells; details: read-out: DIMATE
ALDH3A1 = ALDH3A1 (Homo sapiens, UniProt P30838); experiment: fluorimetric NADPH assay, global inhibition fit; type: biochemical; details: non-competitive; 4-nitrobenzaldehyde substrate, 1 mM NADP+, 37 °C, pH 7.2
Chain of ALDH3A1 (P30838 whole entry): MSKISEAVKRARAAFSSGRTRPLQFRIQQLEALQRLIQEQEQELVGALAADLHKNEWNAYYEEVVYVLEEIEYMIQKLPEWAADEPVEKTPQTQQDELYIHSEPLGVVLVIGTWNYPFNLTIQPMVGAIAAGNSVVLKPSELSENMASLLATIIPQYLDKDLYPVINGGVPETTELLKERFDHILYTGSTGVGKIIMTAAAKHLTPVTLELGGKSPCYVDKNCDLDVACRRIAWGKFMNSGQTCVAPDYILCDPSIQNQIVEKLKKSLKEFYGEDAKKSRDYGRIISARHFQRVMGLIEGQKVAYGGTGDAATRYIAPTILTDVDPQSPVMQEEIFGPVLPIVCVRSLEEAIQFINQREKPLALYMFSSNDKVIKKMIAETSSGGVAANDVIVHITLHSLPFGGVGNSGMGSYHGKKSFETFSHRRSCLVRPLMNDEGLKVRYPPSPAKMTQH

Chain of ALDH1A3 (P47895 whole entry): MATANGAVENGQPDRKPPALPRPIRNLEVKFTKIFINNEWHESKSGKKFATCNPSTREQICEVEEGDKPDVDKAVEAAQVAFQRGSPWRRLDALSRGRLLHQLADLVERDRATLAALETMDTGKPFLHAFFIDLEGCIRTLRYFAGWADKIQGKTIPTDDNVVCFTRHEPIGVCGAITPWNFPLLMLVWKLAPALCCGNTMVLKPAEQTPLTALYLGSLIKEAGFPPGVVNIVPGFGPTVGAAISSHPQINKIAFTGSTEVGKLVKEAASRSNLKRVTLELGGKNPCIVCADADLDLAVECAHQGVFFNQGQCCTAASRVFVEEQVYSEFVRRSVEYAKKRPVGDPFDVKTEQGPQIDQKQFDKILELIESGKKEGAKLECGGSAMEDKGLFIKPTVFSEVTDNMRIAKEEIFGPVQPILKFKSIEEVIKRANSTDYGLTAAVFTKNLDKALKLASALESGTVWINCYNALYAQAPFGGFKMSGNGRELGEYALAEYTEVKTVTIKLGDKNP
Chain of ALDH1A1 (P00352 whole entry): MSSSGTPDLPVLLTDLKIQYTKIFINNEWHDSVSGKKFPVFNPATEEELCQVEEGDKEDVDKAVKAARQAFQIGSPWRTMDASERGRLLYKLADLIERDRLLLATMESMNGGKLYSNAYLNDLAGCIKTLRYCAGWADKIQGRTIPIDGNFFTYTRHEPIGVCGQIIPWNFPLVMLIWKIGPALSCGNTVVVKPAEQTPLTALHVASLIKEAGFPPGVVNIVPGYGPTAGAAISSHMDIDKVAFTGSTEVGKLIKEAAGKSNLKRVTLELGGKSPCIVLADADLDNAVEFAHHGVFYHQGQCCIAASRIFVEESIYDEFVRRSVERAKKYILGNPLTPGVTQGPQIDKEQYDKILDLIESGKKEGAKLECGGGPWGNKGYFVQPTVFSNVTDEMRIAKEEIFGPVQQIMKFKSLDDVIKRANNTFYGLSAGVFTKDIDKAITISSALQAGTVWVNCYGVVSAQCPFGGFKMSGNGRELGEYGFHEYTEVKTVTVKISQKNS
Chain of ALDH1A2 (O94788 whole entry): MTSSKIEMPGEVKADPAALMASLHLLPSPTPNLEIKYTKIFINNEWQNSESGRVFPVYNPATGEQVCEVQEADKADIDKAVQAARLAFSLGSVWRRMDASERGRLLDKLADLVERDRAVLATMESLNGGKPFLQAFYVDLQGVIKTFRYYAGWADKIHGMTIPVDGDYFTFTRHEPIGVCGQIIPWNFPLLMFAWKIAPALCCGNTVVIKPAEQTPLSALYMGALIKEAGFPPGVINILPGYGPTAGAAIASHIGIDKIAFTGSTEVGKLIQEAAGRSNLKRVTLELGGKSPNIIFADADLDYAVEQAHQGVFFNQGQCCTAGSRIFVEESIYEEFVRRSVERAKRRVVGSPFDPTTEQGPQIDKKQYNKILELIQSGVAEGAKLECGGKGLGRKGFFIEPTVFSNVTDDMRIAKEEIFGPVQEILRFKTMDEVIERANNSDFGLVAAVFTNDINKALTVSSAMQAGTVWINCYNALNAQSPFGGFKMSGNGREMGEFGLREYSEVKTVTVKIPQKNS

Compound: CN(C)C(C)(C)C#CC(=O)O [CEY1410]
- GI50 (BT20): > 30 µM
- GI50 (BT474; read-out: III / CEY1410): > 30 µM
- GI50 (DU4475): > 30 µM
- GI50 (HCC1143): > 30 µM
- GI50 (HCC1419; read-out: III / CEY1410): > 30 µM
- GI50 (HCC1569; read-out: III / CEY1410): > 30 µM
- GI50 (HCC1937): > 30 µM
- GI50 (HCC1954; read-out: III / CEY1410): > 30 µM
- GI50 (HCC70): > 30 µM
- GI50 (HS578T): > 30 µM
- GI50 (MCF7; read-out: III / CEY1410): > 30 µM
- GI50 (MDAMB231): > 30 µM
- GI50 (MDAMB361): > 30 µM
- GI50 (MDAMB436; read-out: III / CEY1410): > 30 µM
- GI50 (MDAMB453): > 30 µM
- GI50 (MDAMB468): > 30 µM
- GI50 (SKBR3): > 30 µM
- GI50 (T47D): > 30 µM

Compound: CSC(=O)C#CC(C)(C)N(C)C [DIMATE, 4-dimethylamino-4-methyl-pent-2-ynthioic acid-S-methyl ester]
- IC50 (ALDH1A3): 5.7 ± 0.5 µM
- IC50 (ALDH1A2): 6.4 ± 0.9 µM
- IC50 (ALDH1A1): 25 ± 2 µM
- GI50 (BT474; read-out: I / DIMATE): 3 µM
- GI50 (HCC1419; read-out: I / DIMATE): 7.9 µM
- GI50 (HCC1569; read-out: I / DIMATE): 5 µM
- GI50 (HCC1954; read-out: I / DIMATE): > 30 µM
- GI50 (MCF7; read-out: I / DIMATE): 10.4 µM
- GI50 (MDAMB436; read-out: I / DIMATE): 3.9 µM
- GI50 (MAXFHER 1162): 1.42 µM
- GI50 (MAXFHER 2690): 2.65 µM
- GI50 (MAXFHER 4035): 2.55 µM
- GI50 (MAXFHER BR64): 1.05 µM
- GI50 (MAXFTN 1384): 7.32 µM
- GI50 (MAXFTN 2990): 4.29 µM
- GI50 (MAXFTN 401): 0.52 µM
- GI50 (MAXFTN 449): 0.46 µM
- GI50 (MAXFTN 508): 1.11 µM
- GI50 (MAXFTN BR120): 4.06 µM

Compound: ABD0171
- Ki (ALDH3A1): 233 ± 16 µM
